Assay results as given in US20250228835A1, “PYRIDINYLOXYPYRIDINES AND RELATED COMPOUNDS AND THEIR USE IN TREATING MEDICAL CONDITIONS” (Rectify Pharmaceuticals, Inc., priority 2024, published 2025).

Key:
ABCC6 WT = target: T1, ABCC6 WT (Homo sapiens, UniProt O95255); test: ABCC6 WT assay: HiBit protein expression; format: cell-based; conditions: HEK-293 cells transiently expressing HiBit-tagged ABCC6 WT; 24 h treatment; top concentration 20 μM; read-out: ABCC6 WT EC50, Emax
T1 construct: expressed in transfected cells; host or cells: HEK-293 (transient, Lipofectamine 2000)
T1 sequence (O95255 whole entry): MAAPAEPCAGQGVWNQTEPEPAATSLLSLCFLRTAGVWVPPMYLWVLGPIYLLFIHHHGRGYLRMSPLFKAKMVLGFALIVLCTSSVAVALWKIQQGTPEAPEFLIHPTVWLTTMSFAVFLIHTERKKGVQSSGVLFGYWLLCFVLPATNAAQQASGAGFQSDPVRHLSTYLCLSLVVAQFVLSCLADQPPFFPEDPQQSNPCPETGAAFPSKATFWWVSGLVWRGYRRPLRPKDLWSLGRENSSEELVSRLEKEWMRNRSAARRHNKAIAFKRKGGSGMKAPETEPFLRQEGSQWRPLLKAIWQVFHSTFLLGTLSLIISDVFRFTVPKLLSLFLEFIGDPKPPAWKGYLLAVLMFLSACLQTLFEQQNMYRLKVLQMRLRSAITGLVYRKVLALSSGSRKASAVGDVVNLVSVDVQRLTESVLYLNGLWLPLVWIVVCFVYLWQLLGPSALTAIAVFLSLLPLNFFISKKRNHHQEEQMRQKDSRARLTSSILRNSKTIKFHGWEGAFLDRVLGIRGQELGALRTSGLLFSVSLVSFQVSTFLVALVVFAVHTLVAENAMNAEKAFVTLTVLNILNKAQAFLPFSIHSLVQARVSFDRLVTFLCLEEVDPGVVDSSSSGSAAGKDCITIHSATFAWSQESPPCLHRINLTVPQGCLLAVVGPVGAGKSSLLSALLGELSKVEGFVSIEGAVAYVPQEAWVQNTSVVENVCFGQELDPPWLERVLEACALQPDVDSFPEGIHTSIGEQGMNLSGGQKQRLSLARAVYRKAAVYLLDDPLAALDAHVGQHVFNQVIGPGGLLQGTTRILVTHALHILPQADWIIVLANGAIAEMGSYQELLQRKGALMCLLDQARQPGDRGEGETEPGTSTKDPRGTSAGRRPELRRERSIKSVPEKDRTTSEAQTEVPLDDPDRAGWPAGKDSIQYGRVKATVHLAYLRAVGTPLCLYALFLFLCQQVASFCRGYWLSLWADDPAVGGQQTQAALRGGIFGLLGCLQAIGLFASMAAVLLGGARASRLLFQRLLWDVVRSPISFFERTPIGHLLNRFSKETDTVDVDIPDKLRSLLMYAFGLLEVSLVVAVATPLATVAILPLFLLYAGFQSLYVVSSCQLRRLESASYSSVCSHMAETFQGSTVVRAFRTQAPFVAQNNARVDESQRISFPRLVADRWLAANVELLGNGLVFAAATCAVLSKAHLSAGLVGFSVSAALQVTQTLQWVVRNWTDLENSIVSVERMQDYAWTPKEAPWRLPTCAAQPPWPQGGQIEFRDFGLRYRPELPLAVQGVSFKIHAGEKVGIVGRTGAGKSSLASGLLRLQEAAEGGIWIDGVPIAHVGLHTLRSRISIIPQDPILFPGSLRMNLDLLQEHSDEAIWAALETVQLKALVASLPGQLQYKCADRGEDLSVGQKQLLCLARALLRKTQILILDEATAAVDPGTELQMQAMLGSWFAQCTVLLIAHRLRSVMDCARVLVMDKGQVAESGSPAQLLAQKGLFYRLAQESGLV
From the text: To assess activity against ABCC6, compounds were screened in an assay measuring protein expression, using cells transfected with cDNA encoding HiBit-tagged ABCC6 wild-type.
Described here is an assay for measuring the expression of the wild type of human ABCC6 (henceforth referred to as ABCC6 WT) and the use of this assay to measure the efficacy of compounds to increase the expression of ABCC6 WT. The assay was designed to characterize the efficacy and potency of compounds to increase the expression of ABCC6 WT by calculating an Emax and EC50 value. HEK-293 cells transiently expressing ABCC6 WT (HEK-293/ACC6 WT) were used for this assay and were cultured at 37° C. (5% CO2, humidified) in Dulbecco's Modified Eagle Medium (DMEM, Gibco product #11965-092) supplemented with 10% fetal bovine serum. For the assay, HEK-293 cells were transfected with […]/10 cm plate of cDNA encoding HiBit-tagged ABCC6 wild-type using Lipofectamine 2000 (Thermo Fisher, product #11668019). Twenty-four hours after transfection, the HEK-293/ACC6 WT cells were seeded in white/opaque 384-well plates (PerkinElmer, cat. No. 6007688) at 10,000 cells/well in 20 μl growth medium and allowed to settle for 4 hours at 37° C. (5% CO2, humidified). Compound serial dilutions are prepared in growth medium as ten times (10×) the final concentration and using a dilution factor of 2. After the four-hour incubation period, 2.2 μL of the 10× dilutions are transferred to the assay plate.
Dose response curves include ten doses with the top final concentration at 20 μM in 0.15% DMSO. Liquid handling is performed with an Integra mini96-tip head (INTEGRA). After addition of compound treatment, cells are incubated for 24 hours at 37° C. (5% CO2, humidified). After the 24-hour treatment, plates are allowed to equilibrate for 15 minutes at room temperature. Using Integra mini-96, 20 μl of HiBit lytic assay reagent (Promega, product #N3040), which is prepared according to manufacturer's instructions, is added to each well. The plates are rotated at room temperature for 10 minutes and luminescent signal is acquired using an EnVision Multimode Plate Reader (PerkinElmer).
Results are presented below in Table 4 for ABCC6 WT.

ABCA4 P1380L = target: T2, ABCA4 P1380L (Homo sapiens, UniProt P78363, P1380L); test: A4 correction dose-response assay: ABCA4 P1380L HiBit protein expression; format: cell-based; conditions: HEK-293 cells stably expressing HiBit-tagged ABCA4 P1380L; 24 h treatment; top concentration 30 μM; read-out: ABCA4 P1380L EC50, Emax
T2 construct: expressed in transfected cells
T2 sequence (P78363 whole entry P1380L): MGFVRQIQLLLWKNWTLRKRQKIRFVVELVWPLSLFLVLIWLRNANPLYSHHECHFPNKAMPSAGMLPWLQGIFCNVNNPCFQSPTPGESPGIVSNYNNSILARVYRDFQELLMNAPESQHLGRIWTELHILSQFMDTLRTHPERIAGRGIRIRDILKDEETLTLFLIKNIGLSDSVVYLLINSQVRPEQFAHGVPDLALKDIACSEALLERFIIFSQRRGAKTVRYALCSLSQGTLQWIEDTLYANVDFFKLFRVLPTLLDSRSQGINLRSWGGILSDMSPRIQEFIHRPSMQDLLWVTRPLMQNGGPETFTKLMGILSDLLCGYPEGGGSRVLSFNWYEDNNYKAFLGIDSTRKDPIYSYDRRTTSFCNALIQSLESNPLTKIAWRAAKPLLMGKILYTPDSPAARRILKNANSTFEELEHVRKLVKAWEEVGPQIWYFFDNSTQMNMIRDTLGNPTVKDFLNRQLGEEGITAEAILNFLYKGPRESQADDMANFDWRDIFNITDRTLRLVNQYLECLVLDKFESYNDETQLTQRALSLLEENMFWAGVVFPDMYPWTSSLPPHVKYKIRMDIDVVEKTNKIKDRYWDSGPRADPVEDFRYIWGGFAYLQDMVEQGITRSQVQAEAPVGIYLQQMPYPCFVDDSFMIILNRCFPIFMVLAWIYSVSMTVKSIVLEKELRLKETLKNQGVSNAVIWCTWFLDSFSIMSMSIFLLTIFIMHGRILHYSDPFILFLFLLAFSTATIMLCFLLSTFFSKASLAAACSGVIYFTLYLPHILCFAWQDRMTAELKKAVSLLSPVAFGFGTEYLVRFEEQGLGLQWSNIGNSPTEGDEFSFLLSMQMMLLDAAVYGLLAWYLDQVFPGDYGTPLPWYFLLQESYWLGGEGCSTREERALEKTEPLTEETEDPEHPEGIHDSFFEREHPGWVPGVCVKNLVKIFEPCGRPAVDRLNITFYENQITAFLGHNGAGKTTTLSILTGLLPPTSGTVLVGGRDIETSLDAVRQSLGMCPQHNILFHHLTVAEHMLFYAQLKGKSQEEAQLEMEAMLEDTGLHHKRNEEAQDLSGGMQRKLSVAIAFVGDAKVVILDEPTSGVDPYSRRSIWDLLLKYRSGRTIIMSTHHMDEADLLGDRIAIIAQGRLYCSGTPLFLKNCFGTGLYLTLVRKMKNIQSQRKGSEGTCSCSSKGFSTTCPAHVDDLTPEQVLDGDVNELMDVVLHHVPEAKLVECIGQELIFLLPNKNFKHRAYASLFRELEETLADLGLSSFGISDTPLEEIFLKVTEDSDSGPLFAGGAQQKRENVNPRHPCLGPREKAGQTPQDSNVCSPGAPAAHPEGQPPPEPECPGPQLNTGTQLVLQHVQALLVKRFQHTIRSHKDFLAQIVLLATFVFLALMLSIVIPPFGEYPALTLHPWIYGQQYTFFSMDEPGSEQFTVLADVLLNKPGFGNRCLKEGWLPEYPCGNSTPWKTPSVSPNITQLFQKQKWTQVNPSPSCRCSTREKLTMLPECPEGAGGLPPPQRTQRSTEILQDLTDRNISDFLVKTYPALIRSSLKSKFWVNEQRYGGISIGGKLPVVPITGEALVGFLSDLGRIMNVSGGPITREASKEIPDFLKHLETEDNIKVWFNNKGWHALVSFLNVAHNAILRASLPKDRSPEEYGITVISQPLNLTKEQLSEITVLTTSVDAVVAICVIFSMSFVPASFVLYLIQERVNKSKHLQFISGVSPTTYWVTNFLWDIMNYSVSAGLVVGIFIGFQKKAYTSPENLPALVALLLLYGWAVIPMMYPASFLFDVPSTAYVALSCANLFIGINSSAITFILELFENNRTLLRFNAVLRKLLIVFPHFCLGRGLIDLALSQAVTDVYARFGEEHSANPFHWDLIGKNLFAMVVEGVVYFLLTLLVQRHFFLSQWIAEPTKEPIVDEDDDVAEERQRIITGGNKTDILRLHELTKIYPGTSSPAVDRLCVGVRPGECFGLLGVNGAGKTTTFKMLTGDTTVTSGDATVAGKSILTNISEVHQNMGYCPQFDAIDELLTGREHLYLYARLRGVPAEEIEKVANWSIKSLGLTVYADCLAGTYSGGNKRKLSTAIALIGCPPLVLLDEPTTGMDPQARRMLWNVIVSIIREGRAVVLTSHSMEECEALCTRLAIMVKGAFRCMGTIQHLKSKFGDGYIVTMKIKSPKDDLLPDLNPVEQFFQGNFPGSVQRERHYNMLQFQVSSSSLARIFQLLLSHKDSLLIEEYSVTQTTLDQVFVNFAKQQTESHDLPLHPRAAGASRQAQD
Protocol: Exemplary compounds were evaluated in an A4 correction dose-response assay.
To assess activity against ABCA4 P1380L, the compounds were screened in an assay measuring protein expression, using cells transfected with cDNA encoding HiBit-tagged ABCA4 P1380L. Here we describe an assay for measuring the expression of the P1380L variant of human ABCA4 (henceforth referred to as ABCA4 P1380L) and the use of this assay to measure the efficacy of compounds to increase the expression of ABCA4 P1380L. The assay was designed to characterize the efficacy and potency of compounds to increase the expression of ABCA4 P1380L by calculating an Emax and EC50 value. […] (5% CO2, humidified). […] After the four-hour incubation period, 60 nL of DMSO solutions are transferred to the assay plate.
Dose response curves include eleven doses with the top final concentration at 30 μM in 0.3% DMSO. Liquid handling is performed with ECHO 550 Acoustic Liquid Handler (Labcyte). After addition of compound treatment, cells are incubated for 24 hours at 37° C. (5% CO2, humidified). After the 24-hour treatment, plates are allowed to equilibrate to room temperature for 10 minutes. Using Dragonfly Automated Liquid Handler (TTP LabTech), 20 μl of HiBit lytic assay reagent (Promega, product #N3040), which is prepared according to manufacturer's instructions, is added to each well. The plates are rotated at room temperature for 2 minutes and incubated for 1 hour at 25° C. before luminescent signal is acquired using an EnVision Multimode Plate Reader (PerkinElmer).

| SMILES | EC50 (ABCC6 WT) [nM] | EC50 (ABCA4 P1380L) [nM] |
| --- | --- | --- |
| Cc1cc(C)c(Oc2nc(-c3cncc(C#N)c3)ccc2NS(=O)(=O)c2cccnc2)c(C2CC2)n1 [Compound I-147] | < 1000 | < 1000 |
| Cc1cc(C)c(Oc2nc(-c3ccc(C#N)nc3C)ccc2NS(C)(=O)=O)c(C)c1 [Compound I-6] | < 1000 | 10000 to 25000 |
| Cc1cc(C)c(Oc2nc(-c3cccc(Cl)c3)ccc2S(N)(=O)=O)c(C)c1 [Compound I-102] | 1000 to 10000 | < 1000 |
| Cc1cc(C)c(Oc2nc(-c3cnc(C#N)c(Cl)c3)ccc2NS(C)(=O)=O)c(C)n1 [Compound I-8] | < 1000 | < 1000 |
| Cc1nc(C)c(Oc2nc(-c3cncc(Cl)c3)ccc2NS(C)(=O)=O)c(C2CC2)n1 [Compound I-164] | < 25000 | 1000 to 10000 |
| Cc1cc(C)c(Oc2nc(-c3cncc(C#N)c3)ncc2NS(C)(=O)=O)c(C)c1 [Compound I-10] | < 1000 | < 1000 |
| Cc1cc(C)c(Oc2nc(-c3cncc(Cl)c3)ncc2NS(C)(=O)=O)c(C)c1 [Compound I-9] | < 1000 | > 25000 |
| Cc1nc(N2CC3(COC3)C2)nc(C)c1Oc1nc(-c2cncc(C#N)c2)ccc1NS(C)(=O)=O [Compound I-160] | 1000 to 10000 | > 25000 |
| Cc1nc(C(F)(F)F)nc(C2CC2)c1Oc1nc(-c2cncc(C#N)c2)ccc1S(=O)(=O)Nc1cccnc1 [Compound I-310] | < 1000 | > 25000 |
| CNS(=O)(=O)c1ccc(-c2cncc(C#N)c2)nc1Oc1c(C)cc(C2CC2)nc1C1CC1 [Compound I-298] | 1000 to 10000 | > 25000 |
| CNS(=O)(=O)c1ccc(-c2cncc(C#N)c2)nc1Oc1nc(C)sc1C1CC1 [Compound I-312] | < 25000 | > 25000 |
| Cc1cc(C)c(Oc2nc(-c3cncc(Cl)c3)ccc2S(=O)(=O)N(C)C)c(C)c1 [Compound I-97] | < 1000 | > 25000 |
| Cc1cc(C(F)F)nc(C2CC2)c1Oc1nc(-c2cncc(C#N)c2)ccc1N(C)S(=O)(=O)C1CC1 [Compound I-134] | 1000 to 10000 | > 25000 |
| Cc1sc(C2CC2)nc1Oc1nc(-c2cncc(C#N)c2)ccc1NS(C)(=O)=O [Compound I-299] | < 1000 | < 1000 |
| CNS(=O)(=O)c1ccc(-c2cncc(C#N)c2)nc1Oc1c(C)cc(C(F)F)nc1C1CC1 [Compound I-289] | < 1000 | > 25000 |
| Cc1cc(C)c(Oc2nc(-c3cncc(Cl)c3)ccc2S(C)(=O)=O)c(C)c1 [Compound I-104] | 1000 to 10000 | 1000 to 10000 |
| Cc1nc(C(F)F)nc(C2CC2)c1Oc1nc(-c2cncc(C#N)c2)ccc1S(=O)(=O)NC1CC1 [Compound I-314] | ≥ 25000 | > 25000 |
| CNS(=O)(=O)c1ccc(-c2cncc(C#N)c2)nc1Oc1c(C)nc(C(F)F)nc1C1CC1 [Compound I-313] | 1000 to 10000 | 10000 to 25000 |
| Cc1cc(C(F)F)nc(C2CC2)c1Oc1nc(-c2cncc(C#N)c2)ccc1S(=O)(=O)NC1CC1 [Compound I-288] | < 1000 | 1000 to 10000 |
| Cc1cc(C(F)F)nc(C2CC2)c1Oc1nc(-c2cncc(C#N)c2)ccc1N(C)S(C)(=O)=O [Compound I-135] | 1000 to 10000 | > 25000 |

Now from value to compound:

| EC50 (ABCC6 WT) [nM] | EC50 (ABCA4 P1380L) [nM] | SMILES |
| --- | --- | --- |
| 1000 to 10000 | < 25000 | CNS(=O)(=O)c1ccc(-c2cncc(C#N)c2)nc1Oc1c(C)cc(C(F)(F)F)nc1C1CC1 [Compound I-293] |
| < 1000 | < 1000 | Cc1nc(C2COC2)nc(C2CC2)c1Oc1nc(-c2cncc(C#N)c2)ccc1NS(C)(=O)=O [Compound I-143] |
| 1000 to 10000 | > 25000 | Cc1cc(C(F)(F)F)nc(C2CC2)c1Oc1nc(-c2cncc(Cl)c2)ccc1N(C)S(C)(=O)=O [Compound I-153] |
| < 1000 | < 1000 | Cc1cc(C2CC2)nc(C2CC2)c1Oc1nc(-c2cncc(C#N)c2)ccc1NS(C)(=O)=O [Compound I-161] |
| < 1000 | < 1000 | Cc1nc(C(F)(F)F)nc(C2CC2)c1Oc1nc(-c2cncc(C#N)c2)ccc1NS(C)(=O)=O [Compound I-145] |
| < 1000 | < 1000 | Cc1nc(C2CC2)cc(C2CC2)c1Oc1nc(-c2cncc(C#N)c2)ccc1NS(C)(=O)=O [Compound I-162] |
| < 1000 | < 1000 | Cc1cc(C(F)F)nc(C2CC2)c1Oc1nc(-c2cncc(C#N)c2)ccc1NS(C)(=O)=O [Compound I-137] |
| < 1000 | < 1000 | Cc1cc(C(F)(F)F)nc(C2CC2)c1Oc1nc(-c2cncc(Cl)c2)ccc1NS(C)(=O)=O [Compound I-158] |
| 1000 to 10000 | < 25000 | Cc1cc(C(F)(F)F)nc(C2CC2)c1Oc1nc(-c2cncc(C#N)c2)ccc1S(=O)(=O)N(C)C [Compound I-291] |
| < 1000 | > 25000 | Cc1cc(C(F)(F)F)nc(C2CC2)c1Oc1nc(-c2cncc(C#N)c2)ccc1S(=O)(=O)NC1COC1 [Compound I-305] |
| 1000 to 10000 | < 25000 | Cc1cc(C(F)(F)F)nc(C2CC2)c1Oc1nc(-c2cncc(C#N)c2)ccc1S(=N)(=O)C1CCOCC1 (stereo not shown) [Compound I-301] |
| 1000 to 10000 | 1000 to 10000 | Cc1cc(C(F)(F)F)nc(C2CC2)c1Oc1nc(-c2cncc(C#N)c2)ccc1S(=N)(=O)c1cnccn1 (stereo not shown) [Compound I-297] |
| < 1000 | < 1000 | Cc1cc(C)c(Oc2nc(-c3cncc(C#N)c3)ccc2NS(C)(=O)=O)c(C)n1 [Compound I-5] |
| < 1000 | < 1000 | Cc1cc(C(F)(F)F)nc(C2CC2)c1Oc1nc(-c2cncc(C#N)c2)ccc1NS(=O)(=O)C(C)C [Compound I-141] |
| < 25000 | < 25000 | Cc1nc(C(F)(F)F)cc(C2CC2)c1Oc1nc(-c2cncc(C#N)c2)ccc1N(C)S(C)(=O)=O [Compound I-154] |
| < 1000 | < 1000 | CCS(=O)(=O)N(C)c1ccc(-c2cncc(C#N)c2)nc1Oc1c(C)cc(C(F)(F)F)nc1C1CC1 [Compound I-148] |
| < 1000 | < 1000 | Cc1nc(C(F)(F)F)cc(C2CC2)c1Oc1nc(-c2cncc(C#N)c2)ccc1NS(C)(=O)=O [Compound I-155] |
| < 1000 | < 1000 | CCS(=O)(=O)Nc1ccc(-c2cncc(C#N)c2)nc1Oc1c(C)cc(C(F)(F)F)nc1C1CC1 [Compound I-152] |
| < 1000 | < 1000 | CS(=O)(=O)Nc1ccc(-c2cncc(C#N)c2)nc1Oc1c(C2CC2)nc(C(F)(F)F)nc1C1CC1 [Compound I-138] |
| < 1000 | < 1000 | Cc1nc(C(F)F)nc(C2CC2)c1Oc1nc(-c2cncc(C#N)c2)ccc1NS(C)(=O)=O [Compound I-144] |
| < 1000 | < 1000 | Cc1cc(C(F)(F)F)nc(C2CC2)c1Oc1nc(-c2cncc(C#N)c2)ccc1S(=O)(=O)NC1CC1 [Compound I-133] |
| < 1000 | < 25000 | Cc1cc(C(F)(F)F)nc(C2CC2)c1Oc1nc(-c2cncc(C#N)c2)ccc1NS(C)(=O)=O [Compound I-163] |
| < 1000 | < 1000 | Cc1cc(C2CC2)nc(C)c1Oc1nc(-c2cncc(C#N)c2)ccc1NS(C)(=O)=O [Compound I-4] |
| ≥ 25000 | > 25000 | Cc1cc(C(F)(F)F)nc(C2CC2)c1Oc1nc(-c2cncc(C#N)c2)ccc1S(=O)(=O)N1CCOCC1 [Compound I-290] |
